# Test results as given in US6951840B2, “Lipoglycopeptide antibiotics” (priority 2001, dated 2005).
# Assays:
# [1] = target: T1, E. coli SPase I (Escherichia coli, UniProt P00803, I81L); experiment: Fluorimetric IC50 determination, E. coli signal peptidase; assay type: biochemical
# T1 construct: His-tag (inferred from vector pET15b cloned at NdeI/XhoI and Ni-NTA purification); made in house; host or cells: E. coli BL21(DE3)
# Experimental: Cloning and expression of the E. coli SPase I gene is performed by polymerase chain reaction (PCR) using E. coli genomic DNA as a template and two oligonucleotides as primers: 5′-[…]-3′ (SEQ ID NO: 1) and 5′-[…]-3′ (SEQ ID NO:2). The primers are designed to contain NdeI and XhoI restriction sites at the 5′-ends, respectively, to enable cloning into the bacterial expression vector pET15b (Novagen). The primers are synthesized based upon the published sequence of E. coli SPase I (Wolfe, et al. (1983) J. Biol. Chem. 258, 12073-12080).
# Expression vector pET15b-E. coli SPase is constructed by replacing the NdeI/XhoI fragment of pET15b with the PCR fragment that is purified and digested with Ndel and XhoI. The identity of the cloned gene is confirmed by DNA sequencing. For expression of E. coli SPase I, E. coli strain BL21(DE3)(Stratagene) is transformed with pET15b-E. coli SPase, and grown and induced with 0.4 mM IPTG (isopropryl-1-thio-β-D-galactopyranoside) as described in Studier, et al. (1990) Methods Enzymol. 185, 60-89.
# For purification of E. coli SPase T, one liter of IPTG-induced E. coli BL21(DE3) cells harboring pET15b-E coli SPase is harvested by centrifugation and re-suspended in 50 ml of lysis buffer containing 50 mM Na2HPO4, 300 mM NaCl, pH 8.0, and sonicated 5 min. on ice. The lysate is then centrifuged at 50,000 g for 1 hr at 4° C. The resultant supernatant is discarded, the pellet is re-suspended, and sonicated for 5 min. in 20 ml of lysis buffer containing 8 M urea. After centrifugation at 50,000 g for 1 hr at 4° C., the supernatant is loaded onto a 5 ml column of pre-equilibrated Ni-nitrilotriacetic acid (NTA) that is then washed with 120 ml of refolding buffer (50 mM NaH2PO4, 300 mM NaCl, 15 mM imidazole) containing a continuous urea gradient from 6 to 1 M with a flow rate of 1 ml/min. The protein is eluted with 20 ml of elution buffer (20 mM Tris-HCl, pH 8.0, 20% glycerol, 1 M urea and 100 mM imidazole), and 1 ml fractions are collected and utilized for enzyme assay.
# (§1) “IC50” refers to the concentration of inhibitor required to achieve a half-maximal degree of inhibition of SPase I. The IC50 is determined by a fluorimetric assay as described in Peng, et al. (2001) J. Bacterol. 183, 621-627, with a fluorogenic peptide used as substrate as described therein. The reaction is performed in 50 μls of reaction mixture containing 50 nM of either E. coli or S. pneumoniae SPase I, 50 μM substrate, and a series dilution of inhibitor. Inhibitors are dissolved in dimethylsulfoxide (DMSO). Compounds in DMSO are diluted in reaction buffer. The final DMSO concentration in the reaction mixtures is 2% (v/v). Reaction mixtures are incubated at 37° C. for 1-2 hrs. The IC50 is calculated using a nonlinear regression method with GraphPad Prism™ Software (GraphPad G3-A13127-507). The inhibitory activity of lipoglycopeptides 1-8 against both E. coli and S. pneumoniae signal peptidases, are summarized in Table 7.
# Target sequence in this assay (P00803 77-324 I81L): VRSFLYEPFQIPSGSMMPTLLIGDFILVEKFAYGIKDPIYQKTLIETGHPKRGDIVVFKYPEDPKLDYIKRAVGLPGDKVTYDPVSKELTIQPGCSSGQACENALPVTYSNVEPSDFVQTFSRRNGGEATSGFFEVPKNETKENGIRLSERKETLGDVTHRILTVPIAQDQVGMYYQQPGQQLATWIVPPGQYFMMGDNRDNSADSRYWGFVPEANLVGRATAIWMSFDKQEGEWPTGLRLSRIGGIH
# [2] = target: T2, S. pneumoniae SPase I (Streptococcus pneumoniae serotype 4, UniProt O07344); experiment: Fluorimetric IC50 determination, S. pneumoniae signal peptidase; assay type: biochemical; settings: 50 nM SPase I, 50 μM fluorogenic substrate, 37° C., 1-2 hrs
# T2 construct: made in house
# Experimental: Procedures for cloning, expression and purification of S. pneumoniae Spase can be found in reference (Peng, et al. (2001) J. Bacterol. 183, 621-627).
# as §1
# [3] = system: S. pneumoniae R6; experiment: Broth micro-dilution MIC, S. pneumoniae R6; assay type: cell-based; settings: 23-24 hr at 37° C.; for MIC: Streptococcus pneumoniae, R6, 2XsTH broth; for MIC, S. pneumoniae R6: 2XsTH broth
# Experimental: (§2) The in vitro antibacterial activity of lipoglycopeptides 1, 2, 5, 6, 7, and 8 is determined according to the National Committee for Clinical Laboratory Standards (NCCLS) recommendations for broth micro-dilution assay using 2xsTH (Todd Hewitt broth), MHII (cation adjusted Mueller Hinton broth) or HTM medium (Haemophilus Test Medium) (Gerhardt, P., et al., (1994) Methods for General and Molecular Bacteriology. American Society for Microbiology, Washington, D.C.). Bacterial strains used for antibacterial assay include both gram-positive and gram-negative bacteria: S. pneumoniae R6, Staphylococcus aureus SA027, Haemophilus influenzae ATCC 49247, E. coli EL683 and EL744. A two-fold serial dilution of the test compound is prepared in 100% DMSO. The assay is performed in the wells of a sterile 96-well microplate, that is inoculated with bacterial cell suspension in growth medium or broth as above. The final volume is 100 μl cell suspension, containing 2.5% DMSO. The starting concentration of bacterial cells is 5×10^5 CFU/ml. The 96-well microplate is incubated for 23-24 hr at 37° C. in an ambient air incubator. Upon completion of incubation, the MIC (minimal inhibitory concentration) is determined by visual examination of the microplate with the aid of a magnifying mirror apparatus. The MIC is the lowest concentration of compound tested that results in no visible sign of bacterial growth.
# [4] = system: Staphylococcus aureus SA027; experiment: Broth micro-dilution MIC, S. aureus SA027; assay type: cell-based; settings: MHII broth, 23-24 hr at 37° C.
# Experimental: as §2
# [5] = system: Haemophilus influenzae ATCC 49247; experiment: Broth micro-dilution MIC, H. influenzae ATCC 49247; assay type: cell-based; settings: ATCC49247, read-out: MIC, H. influenzae ATCC49247
# Experimental: as §2
# [6] = system: E. coli EL683; experiment: Broth micro-dilution MIC, E. coli EL683; assay type: cell-based; settings: Escherichia coli, MHII broth, 23-24 hr at 37° C.
# Experimental: as §2
# [7] = system: E. coli EL744; experiment: Broth micro-dilution MIC, E. coli EL744; assay type: cell-based; settings: Escherichia coli, MHII broth, 23-24 hr at 37° C.
# Experimental: as §2
# [8] = system: Staphylococcus aureus (ATCC 33592); experiment: Beta-lactamase release assay; assay type: cell-based; settings: beta-lactamase-producing S. aureus ATCC 33592, 2 hr incubation with inhibitor
# Experimental: In Staphylococcus aureus, signal peptidase cleaves beta-lactamase, resulting in the release of beta-lactaidase into the medium. In this example, the ability of lipoglycopeptides 1,2, and 5 to inhibit the release of beta-lactamase from Staphylococcus aureus into the medium is examined.
# Staphylococcus aureus (ATCC 33592) cells are grown overnight in a series dilution in Brain Heart Infusion (BHI) (Gerhardt, P., et al., (1994) Methods for General and Molecular Bacteriology. American Society for Microbiology, Washington, D.C.) medium in a 37° C. incubator containing 5% CO2. Cultures with an OD660 less than 0.3 are centrifuged, and the cells are washed once with fresh BHI medium. The cells are then resuspended in fresh BHI medium to an initial OD660 of 0.15-0.2. At the same time, the selected inhibitor is diluted from the DMSO stock solution into BHI medium at different concentrations, and is added to the cells which are then incubated at 37° C. under 5% CO2 for 2 hr. The final DMSO concentration in the reaction mixtures is 1% (v/v). The OD660 is measured at the end of incubation. The cells are centrifuged, and the supernatant is saved for the determination of secreted beta-lactamase. The pellet is washed once with fresh BHI medium, re-suspended in the equivalent volume of fresh BHI medium, frozen, and then thawed […]. for three cycles, and used for the determination of retained beta-lactamase. For the determination of beta-lactamase activity, 100 μl reaction mixture (30-50 μls of supernatant or lysed cells) is incubated with 250 μM nitrocefin in 1×PBS buffer (phosphate buffered saline) (pH 6.8) at 37° C. for 30-60 min. Nitrocefin is the substrate for beta-lactamase. Cleavage of nitrocefin results in an increase in absorbance at 482 nm. The absorbance at 482 nm (OD482) is measured at the beginning and at the end of the reaction. The secreted and the retained beta-lactamase activities are calculated based upon the ΔOD482.
# [9] = target: T1, E. coli SPase I; experiment: Kinetic analysis by HPLC assay with non-fluorogenic peptide substrate; assay type: biochemical
# Experimental: A kinetic analysis is performed with E. coli SPase I and the non-fluorogenic peptide substrate by HPLC assay as described in Peng, et al. (2001) J. Bacterol. 183, 621-627. 50 μl of reaction volume contains 50 nM E. coli SPase I with different concentrations of substrate and lipoglycopepetide inhibitors. The reaction mixtures are incubated at room temperature for 30 mins., and terminated by the addition of an equal amount of 8 M urea. The final concentration of DMSO in the reaction mixtures is 2%. Substrate cleavage is analyzed by HPLC as described in Peng, et al. (2001) J. Bacterol. 183, 621-627. The initial rate, K1, and inhibition type of the inhibitor is calculated with Sigma Plot 2000, Version 6.2 with enzyme kinetics module (SPSS, Inc., Cat No. 3703564).
# T2 sequence (O07344 whole entry): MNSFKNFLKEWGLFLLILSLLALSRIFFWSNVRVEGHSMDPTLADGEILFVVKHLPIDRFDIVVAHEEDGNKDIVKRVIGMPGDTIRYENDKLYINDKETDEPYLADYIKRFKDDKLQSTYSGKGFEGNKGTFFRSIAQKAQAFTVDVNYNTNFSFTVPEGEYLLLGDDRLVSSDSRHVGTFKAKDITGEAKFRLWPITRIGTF
Structure (SMILES),IC50 [1] [µM],IC50 [2] [µM],MIC [3] [µg/mL],MIC [4] [µg/mL],MIC [5] [µg/mL],MIC [6] [µg/mL],MIC [7] [µg/mL],inhibition of secretion of beta-lactamase [8],Ki [9] [µM],"MIC, S. pneumoniae R6 [3] [µg/mL]"
CC(C)CCCCCCCCCCCCC(=O)N(C)C(CO)C(=O)NC(C)C(=O)NCC(=O)N(C)C1C(=O)NC(C)C(=O)NC(C(=O)O)Cc2ccc(O)c(c2)-c2cc1cc(O)c2OC1OC(C)C(O)C(O)C1O (stereo not shown) [Compound 1],0.17,7.1,16,32,64,8,32,inhibit the secretion of beta-lactamase,,
CCCCCCCCCCCCCCCC(=O)N(C)C(CO)C(=O)NC(C)C(=O)NCC(=O)N(C)C1C(=O)NC(C)C(=O)NC(C(=O)O)Cc2ccc(O)c(c2)-c2cc1cc(O)c2OC1OC(C)C(O)C(O)C1O (stereo not shown) [Compound 2],0.19,10.3,8,64,64,8,32,inhibit the secretion of beta-lactamase,0.158,16
CC(C)CCCCCCCCCCCC(=O)N(C)C(CO)C(=O)NC(C)C(=O)NCC(=O)N(C)C1C(=O)NC(C)C(=O)NC(C(=O)O)Cc2ccc(O)c(c2)-c2cc1ccc2OC1OC(C)C(O)C(O)C1O (stereo not shown) [Compound 3],0.13,7,,,,,,,,
CCCCCCCCCCCCCCC(=O)N(C)C(CO)C(=O)NC(C)C(=O)NCC(=O)N(C)C1C(=O)NC(C)C(=O)NC(C(=O)O)Cc2ccc(O)c(c2)-c2cc1ccc2OC1OC(C)C(O)C(O)C1O (stereo not shown) [Compound 4],0.13,5.9,,,,,,,,
CC(C)CCCCCCCCCCCCC(=O)N(C)C(CO)C(=O)NC(C)C(=O)NCC(=O)N(C)C1C(=O)NC(C)C(=O)NC(C(=O)O)Cc2ccc(O)c(c2)-c2cc1ccc2OC1OC(C)C(O)C(O)C1O (stereo not shown) [Compound 5],0.13,2.4,16,> 64,> 64,4,16,inhibit the secretion of beta-lactamase,0.0575,8
CCCCCCCCCCCCCC(=O)N(C)C(CO)C(=O)NC(C)C(=O)NCC(=O)N(C)C1C(=O)NC(C)C(=O)NC(C(=O)O)Cc2ccc(O)c(c2)-c2cc1ccc2OC1OC(C)C(O)C(O)C1O (stereo not shown) [Compound 6],0.11,6.6,64,> 64,> 64,,8,,,
CC(C)CCCCCCCCCCC(=O)N(C)C(CO)C(=O)NC(C)C(=O)NCC(=O)N(C)C1C(=O)NC(C)C(=O)NC(C(=O)O)Cc2ccc(O)c(c2)-c2cc1ccc2OC1OC(C)C(O)C(O)C1O (stereo not shown) [Compound 7],0.11,6.1,> 64,> 64,> 64,,16,,0.0504,
CC(C)CCCCCCCCCCC(=O)N(C)C(CO)C(=O)NC(C)C(=O)NCC(=O)N(C)C1C(=O)NC(C)C(=O)NC(C(=O)O)Cc2ccc(O)c(c2)-c2cc1cc(O)c2OC1OC(C)C(O)C(O)C1O (stereo not shown) [Compound 8],0.11,24.9,> 64,> 64,> 64,,8,,0.11,
